From patent US20240041814A1, “USE OF REAGENT FOR DETECTING RETINOL METABOLITE IN PREPARATION OF TOOL FOR DIAGNOSING AND/OR TREATING PNEUMOCONIOSIS” (Institute of Basic Medical Sciences of Chinese Academy of …, priority 2022, published 2024)

Columns and labels:
mice with pneumoconiosis [1] = test: Pathological staining of lung (HE, Szapiel score; Masson, Aschroft score); format: in vivo, mouse; details: 10 mg/kg ATRA intragastrically 3 times a week for 4 weeks
Procedure: Male C57BL/6J mice (aged 8-10 weeks and weighing 25-30 g) were selected and housed in an SPF grade laboratory animal room, and the model of pneumoconiosis was constructed by one-time intratracheal instillation of silica (Si); the mice were divided into four groups (n=9): (1) PBS+vehicle group: 40 μL of sterile phosphate-buffered saline (PBS) was administered by intratracheal instillation; two weeks later, corn oil was administered intragastrically 3 times a week, for 4 weeks; (2) PBS+ATRA group: 40 μL of sterile PBS was administered by intratracheal instillation; two weeks later, 10 mg/kg ATRA was administered intragastrically 3 times a week, for 4 weeks; (3) Si+vehicle group: a silica suspension (300 mg/mL, 40 μL) was administered by intratracheal instillation; two weeks later, corn oil was administered intragastrically 3 times a week, for 4 weeks; (4) Si+ATRA group: a silica suspension (300 mg/mL, 40 μL) was administered by intratracheal instillation; two weeks later, 10 mg/kg ATRA was administered intragastrically 3 times a week, for 4 weeks. All mice were sacrificed after 6 weeks, and the corresponding samples were collected for detection. […] For HE staining, inflammation was scored based on Szapiel scores; for Masson staining, the severity of fibrosis was scored by Aschroft scores. The sections were scanned, photographed and counted by a 3D HISTECH digital slide scanner.

mice with pneumoconiosis [2] = test: Mouse model of pneumoconiosis (intratracheal silica) with ATRA treatment, overall outcome; format: in vivo; details: 10 mg/kg ATRA intragastrically 3 times a week for 4 weeks
IL-1β and IL-6 = test: ELISA of inflammatory factors in mouse BALF; format: in vivo; details: mice with pneumoconiosis, 10 mg/kg ATRA intragastrically 3 times a week for 4 weeks
Procedure: Male C57BL/6J mice (aged 8-10 weeks and weighing 25-30 g) were selected and housed in an SPF grade laboratory animal room, and the model of pneumoconiosis was constructed by one-time intratracheal instillation of silica (Si); the mice were divided into four groups (n=9): (1) PBS+vehicle group: 40 μL of sterile phosphate-buffered saline (PBS) was administered by intratracheal instillation; two weeks later, corn oil was administered intragastrically 3 times a week, for 4 weeks; (2) PBS+ATRA group: 40 μL of sterile PBS was administered by intratracheal instillation; two weeks later, 10 mg/kg ATRA was administered intragastrically 3 times a week, for 4 weeks; (3) Si+vehicle group: a silica suspension (300 mg/mL, 40 μL) was administered by intratracheal instillation; two weeks later, corn oil was administered intragastrically 3 times a week, for 4 weeks; (4) Si+ATRA group: a silica suspension (300 mg/mL, 40 μL) was administered by intratracheal instillation; two weeks later, 10 mg/kg ATRA was administered intragastrically 3 times a week, for 4 weeks. All mice were sacrificed after 6 weeks, and the corresponding samples were collected for detection.
Concentrations of inflammatory factors IL-1β and IL-6 in mouse BALF were detected by using ELISA kits.

mice with pneumoconiosis [3] = test: Cardiopulmonary function test (RVSP, lung function IC and Cst); format: in vivo, mouse; details: ATRA-treated mice with pneumoconiosis compared with control mice, 10 mg/kg intragastrically 3 times a week for 4 weeks
Procedure: Male C57BL/6J mice (aged 8-10 weeks and weighing 25-30 g) were selected and housed in an SPF grade laboratory animal room, and the model of pneumoconiosis was constructed by one-time intratracheal instillation of silica (Si); the mice were divided into four groups (n=9): (1) PBS+vehicle group: 40 μL of sterile phosphate-buffered saline (PBS) was administered by intratracheal instillation; two weeks later, corn oil was administered intragastrically 3 times a week, for 4 weeks; (2) PBS+ATRA group: 40 μL of sterile PBS was administered by intratracheal instillation; two weeks later, 10 mg/kg ATRA was administered intragastrically 3 times a week, for 4 weeks; (3) Si+vehicle group: a silica suspension (300 mg/mL, 40 μL) was administered by intratracheal instillation; two weeks later, corn oil was administered intragastrically 3 times a week, for 4 weeks; (4) Si+ATRA group: a silica suspension (300 mg/mL, 40 μL) was administered by intratracheal instillation; two weeks later, 10 mg/kg ATRA was administered intragastrically 3 times a week, for 4 weeks. All mice were sacrificed after 6 weeks, and the corresponding samples were collected for detection. An anesthetized mouse was fixed on an experimental bench, and an 8 gauge needle connected with a high-fidelity pressure sensor was inserted into the right ventricle to directly measure the invasive right ventricular systolic pressure (RVSP). The RVSP was recorded and analyzed by a Power Lab data acquisition and analysis system (PL 3504, AD Instruments, Australia). Mouse lung function was detected by a pulmonary function testing system (DSI Buxco, USA). Before experiment, the mouse was anesthetized by intraperitoneal injection of 0.4 mL/100 g 2% pentobarbital, tracheotomy was performed, a trachea cannula was inserted, and a ventilator was connected. […] A statistical analysis was conducted on indexes closely related to lung function changes of pneumoconiosis, including inspiratory capacity (IC) and quasi-static compliance (Cst).

FN-1 and Col-I = test: Western blot and qPCR of fibrosis factors in mouse lung tissue; format: in vivo; details: mice with pneumoconiosis, 10 mg/kg ATRA intragastrically 3 times a week for 4 weeks
Procedure: Male C57BL/6J mice (aged 8-10 weeks and weighing 25-30 g) were selected and housed in an SPF grade laboratory animal room, and the model of pneumoconiosis was constructed by one-time intratracheal instillation of silica (Si); the mice were divided into four groups (n=9): (1) PBS+vehicle group: 40 μL of sterile phosphate-buffered saline (PBS) was administered by intratracheal instillation; two weeks later, corn oil was administered intragastrically 3 times a week, for 4 weeks; (2) PBS+ATRA group: 40 μL of sterile PBS was administered by intratracheal instillation; two weeks later, 10 mg/kg ATRA was administered intragastrically 3 times a week, for 4 weeks; (3) Si+vehicle group: a silica suspension (300 mg/mL, 40 μL) was administered by intratracheal instillation; two weeks later, corn oil was administered intragastrically 3 times a week, for 4 weeks; (4) Si+ATRA group: a silica suspension (300 mg/mL, 40 μL) was administered by intratracheal instillation; two weeks later, 10 mg/kg ATRA was administered intragastrically 3 times a week, for 4 weeks. All mice were sacrificed after 6 weeks, and the corresponding samples were collected for detection. Lung tissue proteins of all mice were extracted. […]

## CC1=C(/C=C/C(C)=C/C=C/C(C)=C/C(=O)O)C(C)(C)CCC1 [ATRA, All-trans retinoic acid]
Mice with pneumoconiosis [1]
  severity of fibrosis (Masson staining): reduce the severity
  severity of inflammation (HE staining): reduce the severity
Mice with pneumoconiosis [2]
  cardiopulmonary function, inflammation, and fibrosis: significantly improve
IL-1β and IL-6
  concentration of IL-1β in BALF: lowered concentrations
  concentration of IL-6 in BALF: lowered concentrations
Mice with pneumoconiosis [3]
  inspiratory capacity (IC): improved to a certain extent
  quasi-static compliance (Cst): improved to a certain extent
  right ventricular systolic pressure (RVSP): lowered to a certain extent
FN-1 and Col-I
  level of fibrosis factor Col-I in lung tissue (transcriptional): reduced levels
  level of fibrosis factor FN-1 in lung tissue (translational and transcriptional): reduced levels
